Measured values taken from US11352362B2, “Polymorph of rucaparib camsylate” (SHANGHAI BEGREAT PHARMATECH, priority 2018, dated 2022).
Where a name gives a salt, the structure may show the parent alone.

Experiments:
[1] = Solubility of rucaparib camsylate crystal forms in simulated gastric juice; type: physicochemical; conditions: for Solubility under low pH conditions: such as pH 1.2; for Solubility in SGF: about 1 mg in 1 mL, shaking 20 min, filtered, HPLC
Method: Determination of the solubility of rucaparib camsylate in simulated gastric juice. Weigh about 1 mg of the powder of Form A, Form B, Form C and Form D of rucaparib camsylate in a 2-mL tube, then add 1 mL of simulated gastric juice (Prepared by adding diluted hydrochloric acid 16.4 ml, 800 ml of water and 10 g of pepsin. After shaking, add water to volume of 1000 ml). After shaking the suspension for 20 min, it was filtered through a needle filter to obtain a clear solution. The rucaparib camsylate content in the solution was analyzed by HPLC method.

[2] = Stress stability of crystal form D (XRPD evaluation); type: physicochemical
Method: In order to evaluate the physical stability of the crystal form D, experiments on the stress stability for the crystal form D were performed. The physical stability of the crystal form D under high temperature, high humidity and light stress conditions was investigated. The experimental conditions of the stress stability are as follows: [table] The crystal form D was placed in the above stress conditions. After sampling at the time point, the stability sample was evaluated by XRPD.

SMILES	Solubility under low pH conditions [1]	Solubility in SGF ([1]; simulated gastric juice) [µg/mL]	Crystal form by XRPD after stress ([2]; Elevate temperature 60° C., 5 day)	Crystal form by XRPD after stress ([2]; Elevate temperature 60° C., 10 day)	Crystal form by XRPD after stress ([2]; High humidity 92.5% RH, 5 day)	Crystal form by XRPD after stress ([2]; High humidity 92.5% RH, 10 day)	Crystal form by XRPD after stress ([2]; Light stress 4500 lux, 5 day)	Crystal form by XRPD after stress ([2]; Light stress 4500 lux, 10 day)	Physical stability under stress conditions ([2]; high temperature, high humidity and light stress conditions)	Solubility at 20 minutes compared with existing crystalline forms A, B and C ([1]; simulated gastric juice, low pH, 20 minutes)
CNCc1ccc(-c2[nH]c3cc(F)cc4c3c2CCNC4=O)cc1 [Form A, 8-fluoro-2-{4-[(methylamino)methyl]phenyl}-1,3,4,5-tetrahydro-6H-azepino[5,4,3-cd]indol-6-one ((1S,4R)-7,7-dimethyl-2-oxobicyclo[2.2.1]hept-1-yl) methanesulfonic acid salt]	low solubility	100	–	–	–	–	–	–	–	–
CNCc1ccc(-c2[nH]c3cc(F)cc4c3c2CCNC4=O)cc1 [Form B, 8-fluoro-2-{4-[(methylamino)methyl]phenyl}-1,3,4,5-tetrahydro-6H-azepino[5,4,3-cd]indol-6-one ((1S,4R)-7,7-dimethyl-2-oxobicyclo[2.2.1]hept-1-yl) methanesulfonic acid salt]	low solubility	130	–	–	–	–	–	–	–	–
CNCc1ccc(-c2[nH]c3cc(F)cc4c3c2CCNC4=O)cc1 [Form C, 8-fluoro-2-{4-[(methylamino)methyl]phenyl}-1,3,4,5-tetrahydro-6H-azepino[5,4,3-cd]indol-6-one ((1S,4R)-7,7-dimethyl-2-oxobicyclo[2.2.1]hept-1-yl) methanesulfonic acid salt]	low solubility	110	–	–	–	–	–	–	–	–
CNCc1ccc(-c2[nH]c3cc(F)cc4c3c2CCNC4=O)cc1 [Form D, 8-fluoro-2-{4-[(methylamino)methyl]phenyl}-1,3,4,5-tetrahydro-6H-azepino[5,4,3-cd]indol-6-one ((1S,4R)-7,7-dimethyl-2-oxobicyclo[2.2.1]hept-1-yl) methanesulfonic acid salt]	–	310	Form D	Form D	Form D	Form D	Form D	Form D	stable	significantly higher
